Assay results from the supplement of paper PMC10307832.

How the values were obtained:
Test in all cases: relative viability (nuclei count vs DMSO), 5 days (fraction); higher = more cells survive
Sorafenib + Decitabine = compound: CNC(=O)c1cc(Oc2ccc(NC(=O)Nc3ccc(Cl)c(C(F)(F)F)c3)cc2)ccn1 [Sorafenib] + Nc1ncn([C@H]2C[C@H](O)[C@@H](CO)O2)c(=O)n1 [Decitabine] (partner 2 µM)
Method in brief: (§1)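 Relative viability divides the nuclei count in treated wells by that in vehicle wells. Lung cancer cell lines were seeded in 1536-well plates, dosed by pin tool the next day, and fixed and stained after 5 days in one step with final 0.05% Triton X-100, 1% formaldehyde and 1 ug/ml Hoechst. Dosing was a single drug or a fixed anchor-drug dose plus five library-drug doses (not always all listed) in √10 steps, and values are medians of duplicate plates imaged at 4×.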

Sorafenib + Linsitinib = compound: CNC(=O)c1cc(Oc2ccc(NC(=O)Nc3ccc(Cl)c(C(F)(F)F)c3)cc2)ccn1 [Sorafenib] + C[C@]1(O)C[C@@H](c2nc(-c3ccc4ccc(-c5ccccc5)nc4c3)c3c(N)nccn32)C1 [Linsitinib] (partner 1 µM)
Method in brief: as §1

Sorafenib + Vorinostat = compound: CNC(=O)c1cc(Oc2ccc(NC(=O)Nc3ccc(Cl)c(C(F)(F)F)c3)cc2)ccn1 [Sorafenib] + O=C(CCCCCCC(=O)Nc1ccccc1)NO [Vorinostat] (partner 1 µM)
Method in brief: as §1

Sorafenib + Navitoclax = compound: CNC(=O)c1cc(Oc2ccc(NC(=O)Nc3ccc(Cl)c(C(F)(F)F)c3)cc2)ccn1 [Sorafenib] + CC1(C)CCC(c2ccc(Cl)cc2)=C(CN2CCN(c3ccc(C(=O)NS(=O)(=O)c4ccc(N[C@H](CCN5CCOCC5)CSc5ccccc5)c(S(=O)(=O)C(F)(F)F)c4)cc3)CC2)C1 [Navitoclax] (partner 0.5 µM)
Method in brief: as §1

Sorafenib + Lapatinib = compound: CNC(=O)c1cc(Oc2ccc(NC(=O)Nc3ccc(Cl)c(C(F)(F)F)c3)cc2)ccn1 [Sorafenib] + CS(=O)(=O)CCNCc1ccc(-c2ccc3ncnc(Nc4ccc(OCc5cccc(F)c5)c(Cl)c4)c3c2)o1 [Lapatinib] (partner 2 µM)
Method in brief: as §1

Cell Line	relative viability (Sorafenib + Decitabine; first compound 0.253 µM)	relative viability (Sorafenib + Decitabine; first compound 2.53 µM)	relative viability (Sorafenib + Decitabine; first compound 8 µM)	relative viability (Sorafenib + Linsitinib; first compound 0.08 µM)	relative viability (Sorafenib + Linsitinib; first compound 0.253 µM)	relative viability (Sorafenib + Linsitinib; first compound 2.53 µM)	relative viability (Sorafenib + Linsitinib; first compound 8 µM)	relative viability (Sorafenib + Vorinostat; first compound 0.08 µM)	relative viability (Sorafenib + Vorinostat; first compound 0.253 µM)	relative viability (Sorafenib + Vorinostat; first compound 2.53 µM)	relative viability (Sorafenib + Vorinostat; first compound 8 µM)	relative viability (Sorafenib + Navitoclax; first compound 0.08 µM)	relative viability (Sorafenib + Navitoclax; first compound 0.253 µM)	relative viability (Sorafenib + Navitoclax; first compound 8 µM)	relative viability (Sorafenib + Lapatinib; first compound 0.08 µM)	relative viability (Sorafenib + Lapatinib; first compound 0.253 µM)	relative viability (Sorafenib + Lapatinib; first compound 2.53 µM)	relative viability (Sorafenib + Lapatinib; first compound 8 µM)	relative viability (Sorafenib + Decitabine; first compound 0.08 µM)	relative viability (Sorafenib + Navitoclax; first compound 2.53 µM)
NCI-H520	0.421	0.446	0.299	1.01	0.905	0.919	0.307	0.673	0.597	0.606	0.27	1.21	1.08	0.358	0.92	0.71	0.919	0.402	–	–
COR-L 105	0.617	0.695	0.573	0.853	0.926	0.906	0.985	1.01	0.696	0.946	0.551	0.792	0.821	0.865	0.413	0.393	0.482	0.389	0.733	0.89
SW 1573	0.511	0.408	0.182	0.805	0.786	0.79	0.378	0.662	0.618	0.366	0.425	1.1	0.947	0.689	1.18	0.978	1.12	0.963	0.57	0.983
PC-3 [JPC-3]	0.763	0.837	0.826	0.951	0.981	1.01	0.949	0.886	0.555	1.1	0.883	0.883	0.775	0.877	0.499	0.439	0.502	0.537	0.835	0.806
HCC-15	0.631	0.723	0.321	–	0.873	0.846	0.554	0.973	0.764	0.83	0.576	0.748	0.713	0.522	0.816	0.777	0.831	0.617	0.679	0.804
UMC-11	0.57	0.535	0.249	0.991	0.989	0.945	0.687	0.395	0.422	0.379	0.36	0.32	–	0.152	1.08	0.874	1.07	0.468	0.596	0.34
NCI-H1734	0.445	0.484	0.431	0.967	0.836	0.841	0.742	0.936	0.708	0.752	0.631	0.858	0.721	0.492	1.06	0.991	0.951	0.663	0.479	0.721
H3255	0.523	0.593	0.366	–	0.71	0.903	0.611	–	0.722	0.723	0.618	0.652	0.46	0.502	0.56	0.222	0.295	0.244	0.656	0.616
